The record followed here is ChEMBL document CHEMBL3804818 (J Med Chem, 2016).

A word on the Kd: it is a measure of binding affinity in units of concentration.

Some results are limits rather than exact numbers.

The target of one experiment is Endoplasmin (Homo sapiens, UniProt P14625).
The target of experiment [1] is Heat shock protein HSP 90-alpha (Homo sapiens, UniProt P07900).

Sequence of Endoplasmin (P14625 whole entry): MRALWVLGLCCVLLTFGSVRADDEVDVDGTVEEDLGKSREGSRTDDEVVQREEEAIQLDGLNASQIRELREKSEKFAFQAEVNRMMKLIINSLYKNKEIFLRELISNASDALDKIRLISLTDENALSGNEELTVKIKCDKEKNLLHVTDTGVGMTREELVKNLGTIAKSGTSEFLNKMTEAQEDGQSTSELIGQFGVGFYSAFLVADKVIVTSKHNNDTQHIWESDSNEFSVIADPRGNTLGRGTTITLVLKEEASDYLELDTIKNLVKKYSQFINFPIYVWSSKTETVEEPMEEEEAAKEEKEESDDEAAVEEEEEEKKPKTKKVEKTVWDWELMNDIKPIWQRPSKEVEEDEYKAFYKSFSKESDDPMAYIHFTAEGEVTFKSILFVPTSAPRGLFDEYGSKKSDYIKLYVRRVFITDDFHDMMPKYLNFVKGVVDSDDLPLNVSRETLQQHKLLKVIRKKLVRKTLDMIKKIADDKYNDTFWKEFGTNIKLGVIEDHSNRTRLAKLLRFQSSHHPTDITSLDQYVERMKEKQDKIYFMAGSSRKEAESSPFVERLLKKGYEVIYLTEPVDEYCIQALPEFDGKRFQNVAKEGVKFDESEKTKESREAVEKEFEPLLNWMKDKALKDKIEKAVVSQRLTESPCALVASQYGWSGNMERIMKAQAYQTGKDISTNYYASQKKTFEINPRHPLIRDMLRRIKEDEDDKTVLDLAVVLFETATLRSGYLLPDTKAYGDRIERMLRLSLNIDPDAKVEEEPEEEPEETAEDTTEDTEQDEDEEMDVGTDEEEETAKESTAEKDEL

For the compound `COC(=O)c1c(O)cc(O)c(Cl)c1CCc1nccn1Cc1ccc(C)s1`, the results for the Kd (on Endoplasmin; in experiment [1]) were 0.68 µM and 5.13 µM, respectively.
In the case of `COC(=O)c1c(O)cc(O)c(Cl)c1CCc1nccn1Cc1ccno1`, the Kd at Endoplasmin turned out to be 0.4 µM; in experiment [1], 0.81 µM.
On Endoplasmin, `COC(=O)c1c(O)cc(O)c(Cl)c1CCc1nccn1Cc1ccc(Cl)cc1` displayed a Kd of 0.81 µM.
The same measure, in the same setting: the same measure for `COC(=O)c1c(O)cc(O)c(Cl)c1CCc1nccn1Cc1cccnc1`: 4.04 µM.
For `COC(=O)c1c(O)cc(O)c(Cl)c1CCc1nccn1Cc1sccc1Cl`, the figures for the Kd (on Endoplasmin; in experiment [1]) were 0.76 µM and 3.16 µM, respectively.
In the case of `COC(=O)c1c(O)cc(O)c(Cl)c1CCc1nccn1Cc1ccccc1Br`, at Endoplasmin, the Kd was found to be 1.6 µM.
Take `COC(=O)c1c(O)cc(O)c(Cl)c1CCc1nccn1Cc1ccsc1`: the Kd stood at 2.14 µM at Endoplasmin and 6.54 µM in experiment [1].
Taken in the same sequence, the figures for `COC(=O)c1c(O)cc(O)c(Cl)c1CCc1nccn1Cc1ccco1` were 0.55 µM and 5.91 µM.
Taken in the same sequence, the figures for `COC(=O)c1c(O)cc(O)c(Cl)c1CCc1nccn1Cc1ccccn1` were 4.94 µM and 9.92 µM.
In the case of `COC(=O)c1c(O)cc(O)c(Cl)c1CCc1nccn1Cc1ccccc1OC`, the Kd at Endoplasmin amounted to 1.3 µM; in experiment [1] it was 53.9 µM.
Regarding `CCc1ccccc1Cn1ccnc1CCc1c(Cl)c(O)cc(O)c1C(=O)OC`, the figures for the Kd (on Endoplasmin; in experiment [1]) were 0.81 µM and 38.8 µM, respectively.
Taken in the same sequence, the figures for `CCOc1ccccc1Cn1ccnc1CCc1c(Cl)c(O)cc(O)c1C(=O)OC` were 0.2 µM and 8.1 µM.
Taken in the same sequence, the figures for `COC(=O)c1c(O)cc(O)c(Cl)c1CCc1nccn1Cc1ccc(C)cc1` were 0.73 µM and 25.2 µM.
As for `C=Cc1ccsc1Cn1ccnc1CCc1c(Cl)c(O)cc(O)c1C(=O)OC`, the Kd amounted to 0.75 µM on Endoplasmin and 36.7 µM in experiment [1].
For `COC(=O)c1c(O)cc(O)c(Cl)c1CCc1nccn1Cc1ccccc1OC(C)C`, the Kd on Endoplasmin turned out to be 0.09 µM; in experiment [1], 0.24 µM.
Take `COC(=O)c1c(O)cc(O)c(Cl)c1CCc1nccn1Cc1ccc(C)o1`: on Endoplasmin, binding was put at a Kd of 0.65 µM.
For `COC(=O)c1c(O)cc(O)c(Cl)c1CCc1nccn1Cc1ccc(C#N)cc1`, the equilibrium dissociation constant (Kd) at Endoplasmin turned out to be 4.7 µM; in experiment [1] it was 18.2 µM.
Taken in the same sequence, the figures for `CCCOc1ccccc1Cn1ccnc1CCc1c(Cl)c(O)cc(O)c1C(=O)OC` were 0.25 µM and 2.3 µM.
Taken in the same sequence, the figures for `COC(=O)c1c(O)cc(O)c(Cl)c1CCc1nccn1Cc1ccoc1` were 1.5 µM and 3.77 µM.
Taken in the same sequence, the figures for `COC(=O)c1c(O)cc(O)c(Cl)c1CCc1nccn1Cc1ccc(OC)cc1` were 6.9 µM and more than 150 µM.
`COC(=O)c1c(O)cc(O)c(Cl)c1CCc1nccn1Cc1ccc(F)cc1` returned a Kd at Endoplasmin of 3.2 µM.
`COC(=O)c1c(O)cc(O)c(Cl)c1CCc1nccn1Cc1ccccc1C`: the dissociation constant Kd was determined as 3 µM at Endoplasmin and 68.1 µM in experiment [1].
`C=Cc1ccoc1Cn1ccnc1CCc1c(Cl)c(O)cc(O)c1C(=O)OC` showed a Kd at Endoplasmin of 2.36 µM.
In the case of `COC(=O)c1c(O)cc(O)c(Cl)c1CCc1nccn1Cc1cccs1`, the Kd worked out at 0.47 µM at Endoplasmin and 3.92 µM in experiment [1].
Taken in the same sequence, the figures for `COC(=O)c1c(O)cc(O)c(Cl)c1CCc1nccn1Cc1ccc(C)cc1OC` were 2.35 µM and 72.5 µM.
Take `COC(=O)c1c(O)cc(O)c(Cl)c1CCc1nccn1Cc1oc(C)cc1C`: the Kd was 0.35 µM at Endoplasmin and 9.2 µM in experiment [1].
Taken in the same sequence, the figures for `COC(=O)c1c(O)cc(O)c(Cl)c1CCc1nccn1Cc1cc(Cl)cs1` were 0.67 µM and 1.8 µM.
Consider `COC(=O)c1c(O)cc(O)c(Cl)c1CCc1nccn1Cc1nccs1`, for which the dissociation constant (Kd) at Endoplasmin amounted to 2.5 µM; in experiment [1], 16 µM.
For `COC(=O)c1c(O)cc(O)c(Cl)c1CCc1nccn1Cc1cncnc1`, the results for the Kd (at Endoplasmin; in experiment [1]) were 9.18 µM and 9.92 µM, respectively.
As to `COC(=O)c1c(O)cc(O)c(Cl)c1CCc1nccn1Cc1ccccc1Cl`, the equilibrium dissociation constant (Kd) at Endoplasmin is 1.39 µM; in experiment [1], 8.47 µM.
For `COC(=O)c1c(O)cc(O)c(Cl)c1CCc1nccn1Cc1cccc(F)c1`, the Kd came to 1.53 µM on Endoplasmin and 9.63 µM in experiment [1].
Taken in the same sequence, the figures for `COC(=O)c1c(O)cc(O)c(Cl)c1CCc1nccn1Cc1ccc(Cl)s1` were 0.93 µM and 34.7 µM.
Taken in the same sequence, the figures for `CCc1ccsc1Cn1ccnc1CCc1c(Cl)c(O)cc(O)c1C(=O)OC` were 0.72 µM and 6.94 µM.
Taken in the same sequence, the figures for `COC(=O)c1c(O)cc(O)c(Cl)c1CCc1nccn1Cc1ccccc1C(F)(F)F` were 1.53 µM and 19.3 µM.
Take `C#Cc1ccc(Cn2ccnc2CCc2c(Cl)c(O)cc(O)c2C(=O)OC)cc1`: the Kd on Endoplasmin was 1.4 µM; in experiment [1], 15.8 µM.
Take `COC(=O)c1c(O)cc(O)c(Cl)c1CCc1nccn1Cc1ccccc1F`: the Kd at Endoplasmin came out at 1.36 µM; in experiment [1], 11.4 µM.
